According to patent publication US4545991A, “Difficidin and derivative antibacterials” (Merck & Co., Inc., priority 1983, dated 1985):
In brackets after ≈: the same amount, converted by molar mass.

Experiments:
Ps. aeruginosa = test: MIC, in vitro agar dilution assay, aerobic bacteria (Table II); format: cell-based; conditions: Ps. aeruginosa, second unmarked strain; 10^6 CFU per spot
Actinomyces naeslundii = test: MIC, in vitro agar dilution assay, anaerobic bacteria (Table III); format: cell-based; conditions: 10^6 CFU per spot
E. coli DC 2 = test: MIC, in vitro agar dilution assay, aerobic bacteria (Table II); format: cell-based; conditions: E. coli DC 2; 10^6 CFU per spot
[1] = system: Peptostreptococcus anaerobius; test: MIC, in vitro agar dilution assay, anaerobic bacteria (Table III); format: cell-based; conditions: 10^6 CFU per spot
Prot. vulgaris = test: MIC, in vitro agar dilution assay, aerobic bacteria (Table II); format: cell-based; conditions: 10^6 CFU per spot
B. fragilis Pen^r = test: MIC, in vitro agar dilution assay, anaerobic bacteria (Table III); format: cell-based; conditions: 10^6 CFU per spot
S. aureus Gm^R Meth^R = test: MIC, in vitro agar dilution assay, aerobic bacteria (Table II); format: cell-based; conditions: S. aureus Gm^R Meth^R; 10^6 CFU per spot
C. difficile Fox^r = test: MIC, in vitro agar dilution assay, anaerobic bacteria (Table III); format: cell-based; conditions: C. difficile Fox^r; 10^6 CFU per spot
Ser. marcescens = test: MIC, in vitro agar dilution assay, aerobic bacteria (Table II); format: cell-based; conditions: 10^6 CFU per spot
Propionibacterium acnes = test: MIC, in vitro agar dilution assay, anaerobic bacteria (Table III); format: cell-based; conditions: 10^6 CFU per spot
E. coli TEM 2^+ = test: MIC, in vitro agar dilution assay, aerobic bacteria (Table II); format: cell-based; conditions: E. coli TEM 2^+; 10^6 CFU per spot
Vibrio percolans MB 1272 = test: in vitro agar disc diffusion bioassay of column fractions (Table V); format: cell-based
Procedure: A 0.4 ml sample of 2.1 L spent ethyl acetate fraction from Step A above was evaporated to an oily residue and taken up in 0.7 ml of 7:3 methanol-0.01Mpotassium phosphate pH 7.0. A 0.4 ml aliquot of the solution was chromatographed in the same solvent at 28° C. on a Dupont Zorbax ODS column (4.6 mn ID×25 cm), 10 micron. The flow rate was 1 ml/min. and column effluent was monitored at 275 nm using a Laboratory Data Control Spectra Monitor I ultraviolet detector equipped with a 10 mm pathlength flow cell and a Honeywell Electronik 195 recorder. Eluate was collected in 0.5 ml fractions and assayed by agar disc diffusion against Vibrio percolans MB 1272. Table V summaries bioassay results.
The data in Table V show the presence of two distinct antibacterial substances in spent ethyl acetate. The activity in Fractions 11 and 12 is due to the antibacterial oxydifficidin. The activity in Fractions 61-65 is due to the antibacterial difficidin.

[2] = system: Clostridium perfringens NCCLS control strain; test: microbe, parasite or virus in culture; format: cell-based; conditions: Clostridium perfringens NCCLS control strain; 10^6 CFU per spot
E. coli TEM 2^+ DC 2 = test: MIC, in vitro agar dilution assay, aerobic bacteria (Table II); format: cell-based; conditions: E. coli TEM 2^+ DC 2; 10^6 CFU per spot
C. ramosum = test: MIC, in vitro agar dilution assay, anaerobic bacteria (Table III); format: cell-based; conditions: 10^6 CFU per spot
[3] = system: B. fragilis NCCLS control strain; test: as above; format: cell-based; conditions: 10^6 CFU per spot
Prot. mirabilis Gm^R = test: MIC, in vitro agar dilution assay, aerobic bacteria (Table II); format: cell-based; conditions: 10^6 CFU per spot
[4] = system: Fusobacterium mortiferum Fox^r; test: MIC, in vitro agar dilution assay, anaerobic bacteria (Table III); format: cell-based; conditions: 10^6 CFU per spot
Veillonella alcalescens = test: as above; format: cell-based; conditions: 10^6 CFU per spot
Ent. cloacae P99^- = test: MIC, in vitro agar dilution assay, aerobic bacteria (Table II); format: cell-based; conditions: Ent. cloacae P99^-; 10^6 CFU per spot
Eubacterium limosum = test: MIC, in vitro agar dilution assay, anaerobic bacteria (Table III); format: cell-based; conditions: 10^6 CFU per spot
[5] = system: Klebsiella pneumoniae MB 4005; test: MIC listed with mouse protection test (Table IV); format: cell-based
[6] = system: Bacteriodes fragilis Metr^r, Pen^r; test: MIC, in vitro agar dilution assay, anaerobic bacteria (Table III); format: cell-based; conditions: 10^6 CFU per spot
[7] = system: B. thetaiotaomicron Clind^r, NCCLS control strain; test: as above; format: cell-based; conditions: 10^6 CFU per spot
Klebsiella pneumoniae = test: MIC, standard in vitro assay (Table I); format: cell-based; conditions: 10^6 CFU; 2 strains tested
Source text: (§1) Using standard in vitro assay techniques, minimal inhibitory concentrations (MIC) have been determined for difficidin and oxydifficidin against a number of bacteria.

Salmonella typhimurium = test: MIC, standard in vitro assay (Table I); format: cell-based; conditions: for MIC Range: 10^6 CFU, 1 strain tested
Source text: as §1

Proteus = test: MIC, standard in vitro assay (Table I); format: cell-based; conditions: for MIC Range: 10^6 CFU, 3 strains tested
Source text: as §1

Serratia marcescens = test: MIC, standard in vitro assay (Table I); format: cell-based; conditions: for MIC Range: 10^6 CFU, 1 strain tested
Source text: as §1

Staphylococcus aureus = test: MIC, standard in vitro assay (Table I); format: cell-based; conditions: for MIC Range: 10^6 CFU, 3 strains tested
Source text: as §1

Escherichia coli = test: MIC, standard in vitro assay (Table I); format: cell-based; conditions: 10^6 CFU; 4 strains tested
Source text: as §1

Streptococcus faecalis = test: MIC, standard in vitro assay (Table I); format: cell-based; conditions: 10^6 CFU; 1 strain tested
Source text: as §1

Enterobacter = test: MIC, standard in vitro assay (Table I); format: cell-based; conditions: 10^6 CFU; 3 strains tested
Source text: as §1

Pseudomonas aeruginosa = test: MIC, standard in vitro assay (Table I); format: cell-based; conditions: for MIC Range: 10^6 CFU, 3 strains tested
Source text: as §1

[8] = system: Klebsiella pneumoniae MB 4005; test: standard mouse protection test, experimental systemic infection; format: in vivo, CD1 female mice; conditions: × 2 i.p. doses (immediately after infection and 6 hours later), 7 days
Procedure: The antibacterial efficacy of difficidin and its derivatives was further determined in standard mouse protection tests. An experimental systemic infection was produced in CD1 female mice (Charles River Breeding Laboratories, Wilmington, MA) by the intraperitoneal injection of a suitably diluted broth culture of Klebsiella pneumoniae MB 4005. The test antibacterial compounds and the control drug (streptomycin) were administered parenterally (intraperitoneally) immediately after infection and again 6 hours later. At least 4 fourfold dilutions of each agent were tested. There were 5 mice at each dose level. […] Under the conditions of the test, all infected untreated mice died within 48 hours.
Mice were protected by the administration of the test antibacterial compounds or streptomycin at the median effective doses shown in Table IV below.

Ps. aeruginosa RPL 11^+ = test: MIC, in vitro agar dilution assay, aerobic bacteria (Table II); format: cell-based; conditions: Ps. aeruginosa RPL 11^+; 10^6 CFU per spot

With `C=CC=C(C)CCC1CC=CC=C(C)C(OP(=O)(O)O)CCCC=CC=CC=CCC(C)C(=C)CC(=O)O1` (stereo not drawn) [Difficidin, difficidin] the MIC (Ps. aeruginosa) was 8.0 µg/mL (≈ 14.7 µM), the MIC (Actinomyces naeslundii) was over 128 µg/mL and the MIC (E. coli DC 2) was 8.0 µg/mL (≈ 14.7 µM). It also gave an MIC [1] of 0.06 µg/mL (≈ 0.11 µM), an MIC (Prot. vulgaris) of 0.5 µg/mL (≈ 0.918 µM) and an MIC (B. fragilis Pen^r) of 0.125 µg/mL (≈ 0.229 µM). For the same molecule, the MIC (S. aureus Gm^R Meth^R) was 8.0 µg/mL (≈ 14.7 µM), the MIC (C. difficile Fox^r) was 0.06 µg/mL (≈ 0.11 µM) and the MIC (Ser. marcescens) was 4.0 µg/mL (≈ 7.34 µM). For the same molecule, the MIC (Propionibacterium acnes) was 1 µg/mL (≈ 1.84 µM), the MIC (E. coli TEM 2^+) was 8.0 µg/mL (≈ 14.7 µM) and the “Zone Diameter” value (Vibrio percolans MB 1272; Fraction 61, 40 μl on 3/8" disc) was 12 mm. For the same molecule, the “Zone Diameter” value (Vibrio percolans MB 1272; Fraction 62, 40 μl on 3/8" disc) was 12 mm, the “Zone Diameter” value (Vibrio percolans MB 1272; Fraction 63, 40 μl on 3/8" disc) was 12 mm and the “Zone Diameter” value (Vibrio percolans MB 1272; Fraction 64, 40 μl on 3/8" disc) was 12 mm. The “Zone Diameter” value (Vibrio percolans MB 1272; Fraction 65, 40 μl on 3/8" disc) was 12 mm, the MIC [2] was over 128 µg/mL and the MIC (E. coli TEM 2^+ DC 2) was 8.0 µg/mL (≈ 14.7 µM). It also gave an MIC (C. ramosum) of 2 µg/mL (≈ 3.67 µM), an MIC [3] of 0.06 µg/mL (≈ 0.11 µM) and an MIC (Prot. mirabilis Gm^R) of 8.0 µg/mL (≈ 14.7 µM). The MIC [4] was 0.03 µg/mL (≈ 0.0551 µM), the MIC (Veillonella alcalescens) was 0.25 µg/mL (≈ 0.459 µM) and the MIC (Ent. cloacae P99^-) was 8.0 µg/mL (≈ 14.7 µM). For the same molecule, the MIC (Eubacterium limosum) was over 128 µg/mL, the MIC [5] was 8 µg/mL (≈ 14.7 µM) and the MIC [6] was 0.125 µg/mL (≈ 0.229 µM). The MIC [7] was 0.06 µg/mL (≈ 0.11 µM), the “MIC Range” value (Klebsiella pneumoniae) was 8 µg/mL (≈ 14.7 µM) and the “MIC Range” value (Salmonella typhimurium) was 8 µg/mL (≈ 14.7 µM). For the same molecule, the “effectiveness of difficidin relative to oxydifficidin” value (Salmonella typhimurium; Salmonella typhimurium, in most cases) was “four times more effective”, the “MIC Range” value (Proteus) was 0.5 to 8 µg/mL and the “effectiveness of difficidin relative to oxydifficidin” value (Proteus; Proteus, in most cases) was “four times more effective”. The “MIC Range” value (Serratia marcescens) was 4 µg/mL (≈ 7.34 µM), the “effectiveness of difficidin relative to oxydifficidin” value (Serratia marcescens; Serratia marcescens, in most cases) was “four times more effective” and the “MIC Range” value (Staphylococcus aureus) was 8 to 16 µg/mL. For the same molecule, the “effectiveness of difficidin relative to oxydifficidin” value (Staphylococcus aureus; S. aureus, in most cases) was “four times more effective”, the “MIC Range” value (Escherichia coli) was 8 µg/mL (≈ 14.7 µM) and the “MIC Range” value (Streptococcus faecalis) was 128 µg/mL (≈ 235 µM). The “MIC Range” value (Enterobacter) was 8 to 16 µg/mL, the “MIC Range” value (Pseudomonas aeruginosa) was 8 µg/mL (≈ 14.7 µM) and the “effectiveness of difficidin relative to oxydifficidin” value (Pseudomonas aeruginosa; Ps. aeruginosa, in most cases) was “four times more effective”. It also gave an ED50 ([8]; Test No. 3) of 1.56 mg/kg and an MIC (Ps. aeruginosa RPL 11^+) of 8.0 µg/mL (≈ 14.7 µM).
`C=CC=C(C)CCC1CC=CC=C(C)C(OP(=O)(O)O)CCCC=CC=CC=CC(O)C(C)C(=C)CC(=O)O1` (stereo not drawn) [Oxydifficidin, oxydifficidin] was tested, and the MIC (Ps. aeruginosa) was 32.0 µg/mL (≈ 57.1 µM), the MIC (Actinomyces naeslundii) was 64 µg/mL (≈ 114 µM) and the MIC (E. coli DC 2) was 4.0 µg/mL (≈ 7.13 µM). For the same molecule, the MIC [1] was 0.06 µg/mL (≈ 0.107 µM), the MIC (Prot. vulgaris) was 8.0 µg/mL (≈ 14.3 µM) and the MIC (B. fragilis Pen^r) was 0.125 µg/mL (≈ 0.223 µM). For the same molecule, the MIC (S. aureus Gm^R Meth^R) was 32.0 µg/mL (≈ 57.1 µM), the MIC (C. difficile Fox^r) was 0.06 µg/mL (≈ 0.107 µM) and the MIC (Ser. marcescens) was 16.0 µg/mL (≈ 28.5 µM). For the same molecule, the MIC (Propionibacterium acnes) was 8 µg/mL (≈ 14.3 µM), the MIC (E. coli TEM 2^+) was 16.0 µg/mL (≈ 28.5 µM) and the “Zone Diameter” value (Vibrio percolans MB 1272; Fraction 11, 40 μl on 3/8" disc) was 23 mm. The “Zone Diameter” value (Vibrio percolans MB 1272; Fraction 12, 40 μl on 3/8" disc) was 19 mm, the MIC [2] was over 128 µg/mL and the MIC (E. coli TEM 2^+ DC 2) was 8.0 µg/mL (≈ 14.3 µM). The MIC (C. ramosum) was 2 µg/mL (≈ 3.57 µM), the MIC [3] was 0.25 µg/mL (≈ 0.446 µM) and the MIC (Prot. mirabilis Gm^R) was 32.0 µg/mL (≈ 57.1 µM). It also gave an MIC [4] of 0.125 µg/mL (≈ 0.223 µM), an MIC (Veillonella alcalescens) of 0.06 µg/mL (≈ 0.107 µM) and an MIC (Ent. cloacae P99^-) of 64.0 µg/mL (≈ 114 µM). It also gave an MIC (Eubacterium limosum) of over 128 µg/mL, an MIC [5] of 8 µg/mL (≈ 14.3 µM) and an MIC [6] of 0.25 µg/mL (≈ 0.446 µM). The MIC [7] was 0.25 µg/mL (≈ 0.446 µM), the “MIC Range” value (Klebsiella pneumoniae) was 8 µg/mL (≈ 14.3 µM) and the “MIC Range” value (Salmonella typhimurium) was 32 µg/mL (≈ 57.1 µM). The “MIC Range” value (Proteus) was 2 to 32 µg/mL, the “MIC Range” value (Serratia marcescens) was 16 µg/mL (≈ 28.5 µM) and the “MIC Range” value (Staphylococcus aureus) was 32 to 128 µg/mL. The “MIC Range” value (Escherichia coli) was 4 to 16 µg/mL, the “MIC Range” value (Streptococcus faecalis) was 128 µg/mL (≈ 228 µM) and the “MIC Range” value (Enterobacter) was 32 to 64 µg/mL. For the same molecule, the “MIC Range” value (Pseudomonas aeruginosa) was 16 to 32 µg/mL, the ED50 ([8]; Test No. 1) was 12.25 mg/kg and the ED50 ([8]; Test No. 2) was 14.85 mg/kg. It also gave an MIC (Ps. aeruginosa RPL 11^+) of 16.0 µg/mL (≈ 28.5 µM).
